Patent US20120053168A1, “FUSED BENZOAZEPINES AS NEURONAL NICOTINIC ACETYLCHOLINE RECEPTOR LIGANDS” (Targacept, Inc., priority 2009, published 2012)
Like-named read-outs stand apart in the source and are kept apart here.

Columns and labels:
Rat α4β2 nAChR subtype = target: T1, Rat α4β2 nAChR subtype (Rattus norvegicus, UniProt P09483+P12390); experiment: [3H]nicotine radioligand binding, membranes from rat cortex
T1 construct: from tissue; host or cells: rat cerebral cortex membranes (female Sprague-Dawley)
Protocol: Preparation of membranes from rat cortex: Rats (female, Sprague-Dawley), weighing 150-250 g, were maintained on a 12 h light/dark cycle and were allowed free access to water and food supplied by PMI Nutrition International, Inc. Animals were anesthetized with 70% CO2, and then decapitated. Brains were removed and placed on an ice-cold platform. The cerebral cortex was removed and placed in 20 volumes (weight:volume) of ice-cold preparative buffer (137 mM NaCl, 10.7 mM KCl, 5.8 mM KH2PO4, 8 mM Na2HPO4, 20 mM HEPES (free acid), 5 mM iodoacetamide, 1.6 mM EDTA, pH 7.4); PMSF, dissolved in methanol to a final concentration of 100 μM, was added and the suspension was homogenized by Polytron. The homogenate was centrifuged at 18,000×g for 20 min at 4° C. and the resulting pellet was re-suspended in 20 volumes of ice-cold water. After 60 min incubation on ice, a new pellet was collected by centrifugation at 18,000×g for 20 min at 4° C. The final pellet was re-suspended in 10 volumes of buffer and stored at ˜20° C.
(§1) On the day of the assay, the frozen membranes were thawed and spun at 48,000×g for 20 min. The supernatant was decanted and discarded. The pellet was resuspended in Dulbecco's phosphate buffered saline (PBS, Life Technologies) pH 7.4 and homogenized with the Polytron for 6 seconds. Protein concentrations were determined using a Pierce BCA Protein Assay Kit, with bovine serum albumin as the standard (Pierce Chemical Company, Rockford, Ill.).
(§2) Assay: Membrane preparations (approximately 50 μg for human and 200-300 μg protein for rat α4β2) were incubated in PBS (50 μL and 100 μL respectively) in the presence of competitor compound (0.01 nM to 100 μM) and 5 nM [^3H]nicotine for 2-3 hours on ice. Incubation was terminated by rapid filtration on a multi-manifold tissue harvester (Brandel, Gaithersburg, Md.) using GF/B filters presoaked in 0.33% polyethyleneimine (w/v) to reduce non-specific binding. Tissue was rinsed 3 times in PBS, pH 7.4. Scintillation fluid was added to filters containing the washed tissue and allowed to equilibrate. Filters were then counted to determine radioactivity bound to the membranes by liquid scintillation counting (2200CA Tri-Carb LSC, Packard Instruments, 50% efficiency or Wallac Trilux 1450 MicroBeta, 40% efficiency, Perkin Elmer).
(§3) Data were expressed as disintegrations per minute (DPMs). Within each assay, each point had 2-3 replicates. The replicates for each point were averaged and plotted against the log of the drug concentration. IC50, which is the concentration of the compound that produces 50% inhibition of binding, was determined by least squares non-linear regression. Ki values were calculated using the Cheng-Prussof equation (1973): […]
(§4) where N is the concentration of [^3H]nicotine and Kd is the affinity of nicotine (3 nM, determined in a separate experiment).

Human α4β2 nAChR subtype = target: T2, Human α4β2 nAChR subtype (Homo sapiens, UniProt P17787+P43681); experiment: [3H]nicotine radioligand binding, membranes from SH-EP1/human α4β2 clonal cells
T2 construct: expressed in transfected cells; host or cells: SH-EP1 clonal cells
Protocol: Preparation of membranes from SH-EP1/human α4β2 clonal cells:
Cell pellets from 40 150 mm culture dishes were pooled, and homogenized by Polytron (Kinematica GmbH, Switzerland) in 20 milliliters of ice-cold preparative buffer. The homogenate was centrifuged at 48,000 g for 20 minutes at 4° C. The resulting pellet was re-suspended in 20 mL of ice-cold preparative buffer and stored at ˜20° C.
as §1, §2, §3, §4

[1] = [3H]nicotine, "Failed HTS" = failed to bind sufficiently in high through-put screening to warrant Ki determination
[2] = [3H]nicotine, "Failed HTS" = failed to bind sufficiently in high through-put screening to warrant Ki determination, read-out: Human α4β2 Ki
[3] = [3H]nicotine, "Failed HTS" = failed to bind sufficiently in high through-put screening to warrant Ki determination, read-out: Rat α4β2 Ki

T2 sequence (P43681 29-627 limits assumed): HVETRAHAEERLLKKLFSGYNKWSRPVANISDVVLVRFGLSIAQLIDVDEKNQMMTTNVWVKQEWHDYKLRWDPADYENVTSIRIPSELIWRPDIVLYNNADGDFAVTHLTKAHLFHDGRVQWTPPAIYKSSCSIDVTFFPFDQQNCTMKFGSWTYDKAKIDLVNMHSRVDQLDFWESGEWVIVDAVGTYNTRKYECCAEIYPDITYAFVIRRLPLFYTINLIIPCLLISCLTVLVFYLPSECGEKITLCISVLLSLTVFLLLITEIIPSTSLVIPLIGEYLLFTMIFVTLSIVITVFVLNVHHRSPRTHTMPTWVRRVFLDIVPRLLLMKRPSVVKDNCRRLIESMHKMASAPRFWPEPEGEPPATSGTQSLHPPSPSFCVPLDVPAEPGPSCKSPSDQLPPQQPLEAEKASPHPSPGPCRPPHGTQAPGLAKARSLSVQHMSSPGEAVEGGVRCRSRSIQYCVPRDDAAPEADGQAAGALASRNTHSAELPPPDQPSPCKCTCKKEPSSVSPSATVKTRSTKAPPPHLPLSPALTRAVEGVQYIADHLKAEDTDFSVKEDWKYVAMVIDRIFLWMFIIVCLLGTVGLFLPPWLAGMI
T2 sequence (P17787 26-502): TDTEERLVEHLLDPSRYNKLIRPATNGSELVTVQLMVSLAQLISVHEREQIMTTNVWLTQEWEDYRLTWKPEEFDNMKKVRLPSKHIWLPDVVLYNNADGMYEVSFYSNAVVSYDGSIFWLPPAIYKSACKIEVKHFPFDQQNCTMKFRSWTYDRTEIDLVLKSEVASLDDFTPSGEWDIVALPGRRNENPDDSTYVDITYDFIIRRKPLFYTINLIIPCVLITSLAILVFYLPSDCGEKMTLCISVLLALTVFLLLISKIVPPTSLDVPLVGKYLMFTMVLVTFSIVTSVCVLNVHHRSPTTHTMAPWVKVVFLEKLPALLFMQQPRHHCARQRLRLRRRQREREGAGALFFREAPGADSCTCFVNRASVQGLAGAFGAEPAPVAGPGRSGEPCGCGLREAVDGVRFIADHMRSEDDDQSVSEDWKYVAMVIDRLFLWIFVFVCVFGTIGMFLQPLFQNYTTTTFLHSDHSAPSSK
T1 sequence (P09483 31-630): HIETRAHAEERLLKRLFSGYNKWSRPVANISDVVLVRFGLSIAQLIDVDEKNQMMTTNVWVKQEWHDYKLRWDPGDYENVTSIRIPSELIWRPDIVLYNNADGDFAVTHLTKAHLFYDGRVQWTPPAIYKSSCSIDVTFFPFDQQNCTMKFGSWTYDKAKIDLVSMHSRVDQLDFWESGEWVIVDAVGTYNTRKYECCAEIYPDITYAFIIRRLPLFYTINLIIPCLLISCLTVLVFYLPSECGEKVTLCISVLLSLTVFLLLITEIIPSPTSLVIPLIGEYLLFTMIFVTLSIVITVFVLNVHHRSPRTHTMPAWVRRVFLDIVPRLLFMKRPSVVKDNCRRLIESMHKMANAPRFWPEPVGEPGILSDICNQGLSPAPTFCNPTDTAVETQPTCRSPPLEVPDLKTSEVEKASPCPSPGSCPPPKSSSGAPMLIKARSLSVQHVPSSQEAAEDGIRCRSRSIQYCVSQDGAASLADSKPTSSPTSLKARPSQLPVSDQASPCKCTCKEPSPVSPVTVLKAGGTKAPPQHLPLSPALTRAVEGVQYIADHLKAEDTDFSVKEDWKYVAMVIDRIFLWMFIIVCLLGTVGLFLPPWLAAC
T1 sequence (P12390 25-500): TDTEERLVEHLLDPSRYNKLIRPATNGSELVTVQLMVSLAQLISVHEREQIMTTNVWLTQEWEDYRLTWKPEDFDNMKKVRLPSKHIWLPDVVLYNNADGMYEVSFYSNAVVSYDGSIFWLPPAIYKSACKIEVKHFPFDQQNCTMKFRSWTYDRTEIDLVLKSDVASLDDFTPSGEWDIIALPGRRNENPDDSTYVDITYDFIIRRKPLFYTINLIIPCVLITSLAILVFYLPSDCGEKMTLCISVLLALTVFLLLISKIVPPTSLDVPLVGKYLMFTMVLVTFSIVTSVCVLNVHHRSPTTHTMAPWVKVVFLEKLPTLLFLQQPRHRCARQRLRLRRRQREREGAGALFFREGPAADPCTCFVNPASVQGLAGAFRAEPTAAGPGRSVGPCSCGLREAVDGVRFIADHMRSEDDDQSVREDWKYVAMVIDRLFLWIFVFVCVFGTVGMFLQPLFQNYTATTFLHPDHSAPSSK

SMILES	Rat α4β2 Ki (nM) (Rat α4β2 nAChR subtype; [1])	Ki (Human α4β2 nAChR subtype; [2]) [nM]	other results
Cc1nc2cc3c(cc2nc1C)CCNCC3 [B]	–	–	Ki (Rat α4β2 nAChR subtype): 590 nM; Ki (Human α4β2 nAChR subtype): 98 nM
CCc1nc2cc3c(cc2nc1C)CCNCC3 [C]	Failed HTS	310	–
CCc1nc2cc3c(cc2nc1CC)CCNCC3 [D]	Failed HTS	460	–
Cc1cnc2cc3c(cc2n1)CCNCC3 [E]	–	37	Ki (Rat α4β2 nAChR subtype; [3]): 63 nM
c1cnc2cc3c(cc2c1)CCNCC3 [F]	–	0.93	Ki (Rat α4β2 nAChR subtype; [3]): 3 nM
O=c1cnc2cc3c(cc2[nH]1)CCNCC3 [G]	–	63	Ki (Rat α4β2 nAChR subtype; [3]): 120 nM
COc1cnc2cc3c(cc2n1)CCNCC3 [H]	–	25	Ki (Rat α4β2 nAChR subtype; [3]): 77 nM
c1cncc(-c2cnc3cc4c(cc3n2)CCNCC4)c1 [I]	Failed HTS	–	Ki (Human α4β2 nAChR subtype): 7400 nM
Clc1cnc2cc3c(cc2n1)CCNCC3 [J]	–	–	Ki (Rat α4β2 nAChR subtype): 12 nM; Ki (Human α4β2 nAChR subtype): 45 nM
CNc1cnc2cc3c(cc2n1)CCNCC3 [K]	Failed HTS	–	Human α4β2 Ki (nM) (Human α4β2 nAChR subtype; [1]): Failed HTS
CN(C)c1cnc2cc3c(cc2n1)CCNCC3 [L]	Failed HTS	740	–
c1ccc(CNc2cnc3cc4c(cc3n2)CCNCC4)cc1 [M]	Failed HTS	530	–
O=c1ccc2cc3c(cc2[nH]1)CCNCC3 [N]	Failed HTS	–	Human α4β2 Ki (nM) (Human α4β2 nAChR subtype; [1]): Failed HTS
Clc1ccc2cc3c(cc2n1)CCNCC3 [O]	–	–	Ki (Rat α4β2 nAChR subtype): 3.1 nM; Ki (Human α4β2 nAChR subtype): 0.48 nM
COc1ccc2cc3c(cc2n1)CCNCC3 [P]	Failed HTS	1200	–
Cc1ccc2cc3c(cc2n1)CCNCC3 [Q]	–	11	Ki (Rat α4β2 nAChR subtype; [3]): 45 nM
CN1CCc2cc3nccnc3cc2CC1 [R]	Failed HTS	–	Ki (Human α4β2 nAChR subtype): 210 nM
